Experimental data as given in US20260069581A1, “METHODS AND COMPOSITIONS FOR CANCER THERAPY” (OHIO STATE INNOVATION FOUNDATION, priority 2020, published 2026).

Tests used:
IDH2-WT TF-1 cells = assay: Phospho-H2A.X (pS139) flow cytometry; format: cell-based; settings: IDH2-WT TF-1, 48 hours, 0.8 μM AR-42, 0.1 μM KPT-9274
Method: Thereafter, cells were fixed, permeabilized and stained with BV421 mouse anti-H2A.X (pS139) (Clone N1-431). Stained cells were analyzed by flow cytometry. Results are shown as mean±SEM of duplicates. *p<0.05. N.S.: not significant. […] Results are shown as mean±SEM of duplicates. *p<0.05. […] MOLM13 cells were treated with vehicle control, 0.4 μM or 0.8 μM AR-42 alone, 0.1 μM or 0.25 μM KPT-2974 alone and drug combination for 24 hours before being subject to Western blotting analysis of HR, NHEJ and ATM markers. GAPDH served as loading control. Results are representative of two independent experiments. In the FIG. the treatment concentrations, protein detected in the given Western blot, and molecular weight of the protein detected are as shown in the figure. […] Scrambled or shHDAC8-transduced MOLM13 cells were treated with vehicle, 0.1 μM or 0.25 μM KPT-2974 before being subject to immunoblotting analysis of DNA repair targets. GAPDH serves as loading control. Results are representative of two independent experiments. In the FIG. the treatment concentrations, protein detected in the given Western blot, and molecular weight of the protein detected are as shown in the figure. […] PAPR1 was immunoprecipitated and mono-ADP-ribosylation was detected by western blotting. Results are representative of two independent experiments. […]

[1] = system: HR activity in EJDR-reporter-stable U2OS cells; assay: EJDR reporter assay, HR-GFP; format: cell-based; settings: ISceI-induced
Method: EJDR reporter assay. The EJDR assay was described previously (20). EJDR reporter cells were plated at 5×10^5 cells per well in 10% FBS and RPM11640. After drug treatments, cells were grown in 10% Tet-free FBS (100-800; Gemini) and RPM11640. Incorporated I-Sce1 was induced with Shield1 (632189; Clontech) and triamcinolone (TA) (T6510; Sigma Aldrich) ligands for 24 hours. NHEJ and HR repair activities were assessed 48 hours post induction by quantification of DsRed- and GFP-positive cells on Cytomics FC 500 Flow Cytometer (Beckman Coulter, Brea, CA).
It was unclear whether the potent ability of HDAC inhibitor to induce apoptosis of AML cells in combination with NAMPT inhibition was due to the loss of HR or NHEJ activity alone or both together. Accordingly, HR and NHEJ activities in AML cells exposed to these treatments were examined using the EJDR reporter system (FIG. 6B). EJDR-reporter-stable U2OS cells were treated with vehicle, single agents, or drug combination before being incubated with ligands, TA and Shield 1. […] The expression of D-NHEJ pathway factors, Ku70 and DNA-PKcs, and ATM pathway mediators, CHEK1 and CHEK2, were abolished by AR-42 and KPT-9274 co-treatment. […] Therefore, suppression of HDAC8 can attenuate HR and D-NHEJ gene expressions, resulting in NAMPT inhibitor sensitivity.

leukemia stem cells = settings: caspase-dependent apoptosis, Ref. 28; cited from earlier work

Compound	fluorescence intensity of phospho-H2A.X staining (IDH2-WT TF-1 cells)	HR activity (HR-GFP reporter) [1]	death of leukemia stem cells (leukemia stem cells)
Nc1ccc(/C=C/C(=O)NCc2cc3cc(-c4ccc(C(=O)N5CCC(F)(F)CC5)cc4)cc(-c4ccc(F)cc4)c3o2)cn1 [KPT-9274, (E)-3-(6-aminopyridin-3-yl)-N-[[5-[4-(4,4-difluoropiperidine-1-carbonyl)phenyl]-7-(4-fluorophenyl)-1-benzofuran-2-yl]methyl]prop-2-enamide]	slightly increased	did not impact HR activity	–
CC(C)[C@H](C(=O)Nc1ccc(C(=O)NO)cc1)c1ccccc1 [AR-42, (S)—N-Hydroxy-4-(3-methyl-2-phenylbutanamido)benzamide]	slightly increased	nearly completely abolished	induce death of leukemia stem cells
